Read-outs that look alike come from different tables or passages of the source.

By IC50 is commonly meant the concentration at which inhibition is half-maximal.

One data set deals with hERG channel (Homo sapiens (Human), UniProt Q12809). Briefly: hERG channel inhibition, whole cell patch clamp in HEK293 cells. The conditions noted are these: for hERG @ 10 μM: inhibition at 10 μM. On the technique in general: hERG is a cardiac potassium channel; its block is linked to QT prolongation.
The target in the next data set is human NR1/NR2B (Homo sapiens (Human), UniProt Q05586+Q13224). Briefly: NR2B antagonist activity, Fluo-4 calcium influx assay in HEK293 cells. The format is cell-based. Conditions: glutamate 100 μM, glycine 50 μM. As to the method: (§1) Activation of the NR2A or NR2B subtype of NMDA receptor with glutamate as an agonist and glycine co-agonist on these cells results in calcium influx, which can be monitored with fluorescent indicator Fluo-4.
(§2) For experiments, the cells were seeded onto poly-D-lysine-coated 96-well black plates with clear bottom (Corning) at a density of ˜50,000 cells/well. After overnight culture, the growth medium was removed from the wells and the cells were incubated at 37° C. for 60 min in Hanks buffer containing 4 μM fluo-4-AM (Invitrogen) and 0.1% bovine serum albumin (BSA). After dye-loading, the cells were washed three times with Hanks buffer and incubated for 10 min at room temperature with various concentrations of test compounds prepared in Hanks buffer with 0.1% BSA. The cell plates were placed onto FDSS μCell fluorescence reader (Hamamatsu). After 20 sec reading of background fluorescence, agonist glutamate at final 100 μM and co-agonist glycine at final 50 μM were added to the cells to activate the receptor, and the resulting fluorescence changes were recorded and quantified. Based on the changes in fluorescence intensity, the pharmacological effect of test compounds were analyzed and the IC50 values derived from a non-linear least squares fitting of the concentration-dependent response to a standard logistic equation using Prism (Graphpad, Inc): Amplitude=Max Amplitude/(1+([…])^n).

Data set [1] has as its target human NR1/NR2A (Homo sapiens (Human), UniProt Q05586+Q12879). Briefly: NR2A antagonist activity, Fluo-4 calcium influx assay in HEK293 cells. The format is cell-based. As to the method:
as §1, §2

Another data set has as its target CYP2D6 (Homo sapiens (Human), UniProt P10635). Briefly: CYP P450 enzyme inhibition in pooled human liver microsome. The conditions noted are these: dextromethorphan 5 μM; for CYP2D6 @ 10 μM: inhibition at 10 μM, pooled HLM. (In general: Liver microsomes are a subcellular fraction often used to study metabolism.)
In data set [2] the target is human NR1/NR2A (Homo sapiens (Human), UniProt Q12879). Briefly: NR2A antagonist activity, Fluo-4 calcium influx assay in HEK293 cells. Format: cell-based. As to the method: as §1, §2
[3] abbreviates: hNR2B IC50, HEK293 cells expressing NR1/NR2B.
The mark [4] stands for this setting: HEK293 cells expressing NR1/NR2B, read-out: hNR2B IC50.
The mark [5] stands for this setting: HEK293 cells expressing NR1/NR2A, glutamate 100 μM, glycine 50 μM, read-out: hNR2A IC50.
Where [6] appears, read: read-out: hNR2A IC50; HEK293 cells expressing NR1/NR2A; glutamate 100 μM, glycine 50 μM.

human NR1/NR2A (Homo sapiens (Human), UniProt Q05586+Q12879), sequence (Q12879 23-1464, other chains not shown): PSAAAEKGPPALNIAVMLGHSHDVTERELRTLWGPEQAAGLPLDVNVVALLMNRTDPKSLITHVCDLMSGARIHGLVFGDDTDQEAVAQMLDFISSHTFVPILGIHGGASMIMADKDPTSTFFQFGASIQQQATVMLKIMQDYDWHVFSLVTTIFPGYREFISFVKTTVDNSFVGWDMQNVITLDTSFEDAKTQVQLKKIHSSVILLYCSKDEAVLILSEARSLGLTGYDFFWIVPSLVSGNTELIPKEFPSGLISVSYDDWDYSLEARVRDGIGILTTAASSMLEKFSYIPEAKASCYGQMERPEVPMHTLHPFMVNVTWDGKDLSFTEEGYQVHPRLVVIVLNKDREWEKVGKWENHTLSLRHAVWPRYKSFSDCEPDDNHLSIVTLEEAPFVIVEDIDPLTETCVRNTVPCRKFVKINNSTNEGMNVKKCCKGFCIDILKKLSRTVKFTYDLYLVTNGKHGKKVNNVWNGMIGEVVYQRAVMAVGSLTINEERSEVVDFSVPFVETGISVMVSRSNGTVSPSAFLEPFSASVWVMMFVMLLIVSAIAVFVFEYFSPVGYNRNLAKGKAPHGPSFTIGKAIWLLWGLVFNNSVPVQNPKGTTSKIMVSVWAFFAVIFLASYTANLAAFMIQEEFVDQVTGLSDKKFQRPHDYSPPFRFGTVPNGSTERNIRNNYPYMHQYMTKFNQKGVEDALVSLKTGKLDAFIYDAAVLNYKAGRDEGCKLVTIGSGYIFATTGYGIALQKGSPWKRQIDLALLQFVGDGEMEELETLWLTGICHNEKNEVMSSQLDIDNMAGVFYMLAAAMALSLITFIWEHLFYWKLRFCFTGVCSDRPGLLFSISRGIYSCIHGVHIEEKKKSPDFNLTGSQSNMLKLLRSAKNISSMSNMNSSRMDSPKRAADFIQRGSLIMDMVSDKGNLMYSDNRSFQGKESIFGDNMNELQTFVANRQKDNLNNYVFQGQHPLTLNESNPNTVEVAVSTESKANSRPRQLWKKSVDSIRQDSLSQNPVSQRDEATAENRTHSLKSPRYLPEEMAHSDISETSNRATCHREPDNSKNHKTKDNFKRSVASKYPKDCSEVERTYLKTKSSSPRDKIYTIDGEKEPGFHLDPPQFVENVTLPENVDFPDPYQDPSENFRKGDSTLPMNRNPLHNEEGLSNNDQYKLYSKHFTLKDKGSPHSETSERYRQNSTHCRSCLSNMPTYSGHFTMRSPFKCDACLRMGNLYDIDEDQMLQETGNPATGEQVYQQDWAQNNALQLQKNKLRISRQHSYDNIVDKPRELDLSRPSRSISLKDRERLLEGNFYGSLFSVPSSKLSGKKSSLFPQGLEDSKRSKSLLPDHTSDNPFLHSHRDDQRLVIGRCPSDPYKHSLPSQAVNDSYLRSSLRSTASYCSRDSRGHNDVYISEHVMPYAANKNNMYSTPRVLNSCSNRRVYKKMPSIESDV
human NR1/NR2A (Homo sapiens (Human), UniProt Q12879), sequence (Q12879 23-1464, other chains not shown): as above
CYP2D6, sequence (P10635 whole entry): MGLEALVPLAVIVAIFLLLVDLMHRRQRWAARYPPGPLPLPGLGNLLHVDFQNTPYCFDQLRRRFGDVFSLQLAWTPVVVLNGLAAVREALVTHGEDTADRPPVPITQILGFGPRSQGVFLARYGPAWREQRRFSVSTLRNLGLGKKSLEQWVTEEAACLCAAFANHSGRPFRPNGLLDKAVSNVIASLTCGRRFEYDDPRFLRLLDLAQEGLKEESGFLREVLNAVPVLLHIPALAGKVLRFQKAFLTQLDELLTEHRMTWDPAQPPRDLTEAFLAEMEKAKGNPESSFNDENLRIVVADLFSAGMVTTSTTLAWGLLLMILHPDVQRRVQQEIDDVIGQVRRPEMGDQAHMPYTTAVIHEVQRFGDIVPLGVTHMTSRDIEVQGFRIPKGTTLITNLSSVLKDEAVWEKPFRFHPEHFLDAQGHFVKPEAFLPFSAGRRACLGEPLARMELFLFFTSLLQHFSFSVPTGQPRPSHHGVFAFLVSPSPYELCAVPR
human NR1/NR2B, sequence (Q13224 27-1484, other chains not shown): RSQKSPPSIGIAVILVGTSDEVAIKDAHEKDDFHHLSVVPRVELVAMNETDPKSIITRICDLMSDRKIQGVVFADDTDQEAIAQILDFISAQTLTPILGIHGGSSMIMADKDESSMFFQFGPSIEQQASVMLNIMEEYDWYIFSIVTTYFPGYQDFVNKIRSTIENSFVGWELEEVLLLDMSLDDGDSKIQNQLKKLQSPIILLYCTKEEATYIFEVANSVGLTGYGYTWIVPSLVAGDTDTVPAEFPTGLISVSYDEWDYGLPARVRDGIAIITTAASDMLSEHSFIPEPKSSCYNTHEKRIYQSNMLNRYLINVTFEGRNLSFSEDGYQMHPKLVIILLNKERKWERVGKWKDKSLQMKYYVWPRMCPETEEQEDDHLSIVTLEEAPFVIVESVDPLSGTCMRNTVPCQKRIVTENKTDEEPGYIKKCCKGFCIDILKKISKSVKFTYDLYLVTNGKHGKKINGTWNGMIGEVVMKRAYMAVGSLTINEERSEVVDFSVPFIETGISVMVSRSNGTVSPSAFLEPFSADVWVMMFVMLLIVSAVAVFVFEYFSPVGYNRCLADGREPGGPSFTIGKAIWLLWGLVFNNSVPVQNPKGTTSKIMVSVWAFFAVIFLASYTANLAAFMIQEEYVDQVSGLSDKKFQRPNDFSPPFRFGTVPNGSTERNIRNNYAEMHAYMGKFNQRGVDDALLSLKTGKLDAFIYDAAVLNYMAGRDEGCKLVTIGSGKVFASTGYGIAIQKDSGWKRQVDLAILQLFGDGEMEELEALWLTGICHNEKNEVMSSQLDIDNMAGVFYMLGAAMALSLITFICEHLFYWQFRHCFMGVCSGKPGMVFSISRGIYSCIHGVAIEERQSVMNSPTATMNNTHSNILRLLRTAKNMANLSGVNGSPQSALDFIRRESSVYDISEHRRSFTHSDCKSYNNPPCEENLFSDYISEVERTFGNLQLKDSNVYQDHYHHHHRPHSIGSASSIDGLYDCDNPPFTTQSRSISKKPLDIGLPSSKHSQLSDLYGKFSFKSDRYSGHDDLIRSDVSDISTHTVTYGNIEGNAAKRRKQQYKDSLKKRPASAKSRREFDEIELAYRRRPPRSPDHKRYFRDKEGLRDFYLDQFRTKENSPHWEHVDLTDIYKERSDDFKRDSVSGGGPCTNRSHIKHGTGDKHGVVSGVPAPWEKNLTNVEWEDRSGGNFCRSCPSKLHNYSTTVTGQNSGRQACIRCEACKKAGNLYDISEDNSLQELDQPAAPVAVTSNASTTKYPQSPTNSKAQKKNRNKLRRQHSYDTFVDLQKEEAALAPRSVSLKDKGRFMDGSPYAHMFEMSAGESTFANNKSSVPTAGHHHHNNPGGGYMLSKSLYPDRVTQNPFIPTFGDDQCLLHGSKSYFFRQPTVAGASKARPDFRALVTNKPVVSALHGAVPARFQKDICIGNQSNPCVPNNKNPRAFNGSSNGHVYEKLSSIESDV
Description for CYP2D6: Those CYP isoforms and their corresponding probe substrates are as follows: CYP1A2 (phenacetin, 30 μM), CYP2C9 (tolutamide, 100 μM), CYP2C19 (S-mephenytoin, 40 μM), CYP2D6 (dextromethorphan, 5 μM) and CYP3A4 (midazolam, 1 μM). All probe substrates were used at concentrations near or below their Kms. For experiment, a reaction mixture of test compound at 10 uM or in serial dilution, CYP probe substrate described above and 0.2 mg/mL pooled HLM in phosphate buffer, pH 7.4 in a final volume of 200 μL was pre-incubated at 37° C. for 10 minutes in triplicate. The reaction was initiated by addition of NADPH at final concentration of 1 mM. The reaction was terminated after 10 minutes (CYP1A2, CYP2D6 and CYP3A4) or 30 minutes (CYP2C9 and CYP2C19) by addition of 100 μL ice-cold acetonitrile with internal standard (IS). The samples were then centrifuged at 13,000 rpm and the supernatants were injected to LC-MS/MS (Agilent Technologies) to quantify the concentration of the specific metabolites of the probe substrates formed by individual CYP450 isoforms. The inhibition ratio is calculated as: (Mt−M0)/Mwater×100% in which Mt and M0 represent the concentrations of the specific probe substrate metabolite, which was formed by individual CYP450 isoform, at the beginning and end of the reaction in the presence of test compound; while Mwater represents the concentration of the specific metabolite at the end of the reaction in the absence of test compound. Test compound concentration-dependent response data experiments performed in triplicate.

On to `FC1(F)CN(CCc2ccccc2)CCC1Nc1ncnc2[nH]ncc12` (racemic) [C-1.1, (±)-N-(3,3-difluoro-1-phenethylpiperidin-4-yl)-1H-pyrazolo[3,4-d]pyrimidin-4-amine], for which the IC50 at hERG channel was 71000 nM; at human NR1/NR2B (setting [3]) it was 98.8 nM; at human NR1/NR2A [1], greater than 10000 nM.

Regarding `Fc1ccc(CCN2CCC(Nc3ncnc4[nH]ncc34)C(F)(F)C2)cc1` (racemic) [C-1.2, (±)-N-(3,3-difluoro-1-(4-fluorophenethyl)piperidin-4-yl)-1H-pyrazolo[3,4-d]-pyrimidin-4-amine], the “CYP2D6 @ 10 μM” value at CYP2D6 is 45.1%. Further, the IC50 on hERG channel is 16300 nM; on human NR1/NR2B (setting [3]) it was 68.3 nM; at human NR1/NR2A [1], greater than 10000 nM.

For the compound `Cc1n[nH]c2ncnc(NC3CCN(CCc4ccc(C(F)(F)F)cc4)CC3(F)F)c12` (racemic) [C-1.34, (±)-N-(3,3-difluoro-1-(4-(trifluoromethyl)phenethyl)piperidin-4-yl)-3-methyl-1H-pyrazolo[3,4-d]pyrimidin-4-amine], the “hERG @ 10 μM” value on hERG channel worked out at 68%. Also, the IC50 on human NR1/NR2A [1] was greater than 10000 nM.

With `Fc1ccc(F)c(CCN2CCC(Nc3ncnc4[nH]ncc34)C(F)(F)C2)c1` (racemic) [C-1.35, (±)-N-(1-(2,5-difluorophenethyl)-3,3-difluoropiperidin-4-yl)-1H-pyrazolo[3,4-d]-pyrimidin-4-amine], the “hERG @ 10 μM” value on hERG channel is given as 17%. The IC50 was 329 nM on human NR1/NR2B (setting [3]) and greater than 10000 nM on human NR1/NR2A [1].

Regarding `FC(F)(F)c1cccc(CCN2CCC(Nc3ncnc4[nH]ncc34)C(F)(F)C2)c1` (racemic) [C-1.36], on CYP2D6, the “CYP2D6 @ 10 μM” value is 27.9%. In addition, at hERG channel, the “hERG @ 10 μM” value is 56%. Moreover, on human NR1/NR2A [1], the IC50 was greater than 10000 nM.

Take `FC(F)(F)c1ccc(CCN2CCC(Nc3ncnc4[nH]ccc34)C(F)(F)C2)cc1` (racemic) [C-2.5, (±)-N-(3,3-difluoro-1-(4-(trifluoromethyl)phenethyl)piperidin-4-yl)-7H-pyrrolo-[2,3-d]pyrimidin-4-amine]: on hERG channel, the “hERG @ 10 μM” value worked out at 60%. Also, the results for the IC50 at human NR1/NR2B (setting [4]) and at human NR1/NR2A [1] (setting [5]) were 105 nM and greater than 10000 nM, respectively.

As to `Cc1ccc(CCN2CCC(Nc3ncnc4[nH]ncc34)C(F)(F)C2)cn1` (racemic) [C-3.4, (±)-N-(3,3-difluoro-1-(2-(6-methylpyridin-3-yl)ethyl)piperidin-4-yl)-1H-pyrazolo[3,4-d]pyrimidin-4-amine], the “hERG @ 10 μM” value at hERG channel was found to be 18%. The IC50 at human NR1/NR2B (setting [3]) is 2270 nM; on human NR1/NR2A [1], greater than 10000 nM.

In the case of `FC(F)(F)c1ccc(CCN2CCC(Nc3ncnc4[nH]ncc34)C(F)(F)C2)cn1` (racemic) [C-3.5, (±)-N-(3,3-difluoro-1-(2-(6-(trifluoromethyl)pyridin-3-yl)ethyl)piperidin-4-yl)-1H-pyrazolo[3,4-d]pyrimidin-4-amine], the “hERG @ 10 μM” value at hERG channel stood at 23%. Also, the results for the IC50 on human NR1/NR2B (setting [4]) and on human NR1/NR2A [1] (setting [5]) were 822 nM and greater than 10000 nM, respectively.

Take `FC(F)(F)c1ccc(CCN2CCC(Nc3ncnc4[nH]ccc34)C(F)(F)C2)cn1` (racemic) [C-4.5, (±)-N-(3,3-difluoro-1-(2-(6-(trifluoromethyl)pyridin-3-yl)ethyl)piperidin-4-yl)-7H-pyrrolo[2,3-d]pyrimidin-4-amine]: on hERG channel, the “hERG @ 10 μM” value is 24%. Moreover, the IC50 was 1740 nM at human NR1/NR2B (setting [4]) and greater than 10000 nM on human NR1/NR2A [1] (setting [5]).

On to `FC1(F)CN(CCc2ccc(Cl)cc2)CCC1Nc1ncnc2[nH]ncc12` (single isomer, unassigned) [E1-1.3, (R*)-N-(1-(4-chlorophenethyl)-3,3-difluoropiperidin-4-yl)-1H-pyrazolo[3,4-d]-pyrimidin-4-amine], for which the “CYP2D6 @ 10 μM” value on CYP2D6 is on record as 21.5%. For the same compound, the “hERG @ 10 μM” value on hERG channel is 58%. For the same compound, the results for the IC50 on human NR1/NR2B (setting [3]) and on human NR1/NR2A [1] were 25 nM and greater than 10000 nM, respectively.

As to `Cc1ccc(CCN2CCC(Nc3ncnc4[nH]ncc34)C(F)(F)C2)cc1` (single isomer, unassigned) [E1-1.4, (R*)-N-(3,3-difluoro-1-(4-methylphenethyl)piperidin-4-yl)-1H-pyrazolo[3,4-d]-pyrimidin-4-amine], the IC50 was 18.5 nM at human NR1/NR2B (setting [3]) and greater than 10000 nM at human NR1/NR2A [1].

Take `FC(F)c1ccc(CCN2CCC(Nc3ncnc4[nH]ncc34)C(F)(F)C2)cc1` (single isomer, unassigned) [E1-1.6, (R*)-N-(1-(4-(difluoromethyl)phenethyl)-3,3-difluoropiperidin-4-yl)-1H-pyrazolo-[3,4-d]pyrimidin-4-amine]: the “CYP2D6 @ 10 μM” value at CYP2D6 is listed as 24.4%. In addition, the figures for the IC50 on hERG channel (hERG IC50) and on human NR1/NR2A [1] were 3500 nM and greater than 10000 nM, respectively. In addition, the “hERG @ 10 μM” value at hERG channel came to 63%.

As to `FCc1ccc(CCN2CCC(Nc3ncnc4[nH]ncc34)C(F)(F)C2)cc1` (single isomer, unassigned) [E1-1.7, (R*)-N-(3,3-difluoro-1-(4-(fluoromethyl)phenethyl)piperidin-4-yl)-1H-pyrazolo[3,4-d]-pyrimidin-4-amine], the “CYP2D6 @ 10 μM” value at CYP2D6 was 23.2%. Besides, the “hERG @ 10 μM” value on hERG channel stood at 36%. Also, the IC50 at human NR1/NR2B (setting [3]) is 22.4 nM; on human NR1/NR2A [1], greater than 10000 nM.

As for `FC(F)(F)Oc1ccc(CCN2CCC(Nc3ncnc4[nH]ncc34)C(F)(F)C2)cc1` (single isomer, unassigned) [E1-1.11, (R*)-N-(3,3-difluoro-1-(4-(trifluoromethoxy)phenethyl)piperidin-4-yl)-1H-pyrazolo[3,4-d]pyrimidin-4-amine], at human NR1/NR2A [1], the IC50 is greater than 10000 nM.

On to `FC(F)Oc1ccc(CCN2CCC(Nc3ncnc4[nH]ncc34)C(F)(F)C2)cc1` (single isomer, unassigned) [E1-1.12, (R*)-N-(1-(4-(difluoromethoxy)phenethyl)-3,3-difluoropiperidin-4-yl)-1H-pyrazolo[3,4-d]pyrimidin-4-amine], for which the “hERG @ 10 μM” value at hERG channel is on record as 79%. In addition, the IC50 at human NR1/NR2B (setting [3]) was 83.8 nM; on human NR1/NR2A [1], greater than 10000 nM.

As for `Fc1cc(Cl)ccc1CCN1CCC(Nc2ncnc3[nH]ncc23)C(F)(F)C1` (single isomer, unassigned) [E1-1.16, (R*)-N-(1-(4-chloro-2-fluorophenethyl)-3,3-difluoropiperidin-4-yl)-1H-pyrazolo-[3,4-d]pyrimidin-4-amine], on CYP2D6, the “CYP2D6 @ 10 μM” value is 23.2%. The “hERG @ 10 μM” value on hERG channel is given as 47%. For the same compound, the IC50 on human NR1/NR2B (setting [3]) is 27.9 nM; on human NR1/NR2A [1], greater than 10000 nM.

Take `Cc1ccc(CCN2CCC(Nc3ncnc4[nH]ncc34)C(F)(F)C2)cc1` (single isomer, unassigned) [E2-1.4, (S*)-N-(3,3-difluoro-1-(4-methylphenethyl)piperidin-4-yl)-1H-pyrazolo[3,4-d]-pyrimidin-4-amine]: the IC50 on human NR1/NR2B (setting [3]) is 21.9 nM; on human NR1/NR2A [2] (setting [6]) it was greater than 10000 nM.

Regarding `FCc1ccc(CCN2CCC(Nc3ncnc4[nH]ncc34)C(F)(F)C2)cc1` (single isomer, unassigned) [E2-1.7, (S*)-N-(3,3-difluoro-1-(4-(fluoromethyl)phenethyl)piperidin-4-yl)-1H-pyrazolo-[3,4-d]-pyrimidin-4-amine], the “hERG @ 10 μM” value at hERG channel is 49%. Besides, the values for the IC50 on human NR1/NR2B (setting [3]) and at human NR1/NR2A [2] (setting [6]) were 38.1 nM and greater than 10000 nM, respectively.

Consider `Fc1cc(Cl)ccc1CCN1CCC(Nc2ncnc3[nH]ncc23)C(F)(F)C1` (single isomer, unassigned) [E2-1.16, (S*)-N-(1-(4-chloro-2-fluorophenethyl)-3,3-difluoropiperidin-4-yl)-1H-pyrazolo-[3,4-d]pyrimidin-4-amine], for which the “hERG @ 10 μM” value at hERG channel is recorded as 64%. The IC50 at human NR1/NR2B (setting [3]) was 61.9 nM; on human NR1/NR2A [2] (setting [6]) it was greater than 10000 nM.

In the case of `FC(F)(F)c1ccc(CCN2CCC(Nc3ncnc4[nH]ncc34)C(F)(F)C2)cc1` (single isomer, unassigned; (+)) [E1-1.5, (+)-(R*)-N-(3,3-difluoro-1-(4-(trifluoromethyl)phenethyl)piperidin-4-yl)-1H-pyrazolo[3,4-d]pyrimidin-4-amine], the IC50 against CYP2D6 (CYP2D6 IC50, pooled HLM) is 34100 nM; on hERG channel (hERG IC50), 9800 nM; on human NR1/NR2A [1], greater than 10000 nM. In addition, at CYP2D6, the “CYP2D6 @ 10 μM” value amounted to 27.6%.

For `FC(F)(F)c1ccc(C(F)(F)CN2CCC(Nc3ncnc4[nH]ncc34)CC2)cc1` [LX-1, reference compound], the “CYP2D6 @ 10 μM” value on CYP2D6 was 93%.

As for “(±)-N-(1-(3,4-difluorophenethyl)-3,3-difluoropiperidin-4-yl)-1H-pyrazolo-[3,4-d]-pyrimidin-4-amine [C-1.15]”, the “hERG @ 10 μM” value at hERG channel was 37%. Also, the IC50 on human NR1/NR2B (setting [4]) was 78.9 nM; at human NR1/NR2A [2] (HEK293 cells expressing NR1/NR2A; glutamate 100 μM, glycine 50 μM; read-out: hNR2A IC50), greater than 10000 nM.
